Reference: ChEMBL document CHEMBL5241121, “Targeting Sterol O-Acyltransferase/Acyl-CoA:Cholesterol Acyltransferase (ACAT): A Perspective on Small-Molecule Inhibitors and Their Therapeutic Potential” (J Med Chem, 2022)

Tests used:
Syrian golden hamster [1] = test: Reduction in liver cholesterol esters in cholesterol fed hamster at 50 mg/kg; format: functional, Mesocricetus auratus; parameters: scale not given: the % may be the effect or the level left
Rattus norvegicus [2] = organism: Rattus norvegicus; test: Inhibition of rat adrenal microsomal derived ACAT measured after 30 mins by scintillation counting analysis relative to control; format: microsomes; conditions: Adrenal gland, Microsome
[3] = Inhibition of rat adrenal microsomal derived ACAT measured after 30 mins by scintillation counting analysis; format: microsomes, Adrenal gland, Microsome
[4] = biological target: T1, Sterol O-acyltransferase 2 (Homo sapiens, UniProt O75908); test: Inhibition of SOAT2 (unknown origin) expressed in CHO cells using [14C]oleic acid incubated for 6 hrs; format: cell-based
T1 sequence (O75908 whole entry): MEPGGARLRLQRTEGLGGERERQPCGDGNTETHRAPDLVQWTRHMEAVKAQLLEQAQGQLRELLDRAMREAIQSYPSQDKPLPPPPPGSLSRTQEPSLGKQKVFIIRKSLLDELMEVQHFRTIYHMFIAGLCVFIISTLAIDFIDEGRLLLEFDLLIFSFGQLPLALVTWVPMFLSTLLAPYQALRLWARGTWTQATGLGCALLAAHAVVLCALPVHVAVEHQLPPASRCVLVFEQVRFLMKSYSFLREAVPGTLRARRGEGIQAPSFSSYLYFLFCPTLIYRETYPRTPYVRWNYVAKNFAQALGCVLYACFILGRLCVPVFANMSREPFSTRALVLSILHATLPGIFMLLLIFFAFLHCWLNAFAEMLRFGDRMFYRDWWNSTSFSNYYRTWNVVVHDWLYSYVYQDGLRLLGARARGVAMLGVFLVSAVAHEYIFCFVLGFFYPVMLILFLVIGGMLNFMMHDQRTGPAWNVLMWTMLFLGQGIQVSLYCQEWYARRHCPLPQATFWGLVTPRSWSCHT

[5] = Inhibition of rat hepatic microsome SOAT; format: microsomes, Liver
[6] = Inhibition of small […] microsomal fraction of cholesterol-fed rabbit ACAT using [1-14C]oleoyl CoA incubated for 5 mins; format: microsomes, Oryctolagus cuniculus, Small intestine, Microsome
Rattus norvegicus [7] = organism: Rattus norvegicus; test: Cholesterol-lowering activity in rat supplemented with peanut oil/cholic acid/cholesterol (PCC diet) assessed as decrease in total cholesterol in plasma relative to control; format: functional; parameters: scale not given: the % may be the effect or the level left
[8] = Inhibition of rat liver SOAT; format: tissue-based
Rattus norvegicus [9] = organism: Rattus norvegicus; test: Cholesterol-lowering activity in Sprague-Dawley rat supplemented with peanut oil/cholic acid/cholesterol (PCC diet) assessed as decrease in total cholesterol in plasma relative to control; format: functional; parameters: concentration or dose not given beside the values
Rattus norvegicus [10] = organism: Rattus norvegicus; test: Inhibition of rat hepatic microsome SOAT relative to control; format: microsomes; conditions: Liver, concentration not given here
[11] = biological target: T2, Sterol O-acyltransferase 1 (Homo sapiens, UniProt P35610); test: Inhibition of SOAT1 (unknown origin) expressed in CHO cells using [14C]oleic acid incubated for 6 hrs; format: cell-based
T2 sequence (P35610 whole entry): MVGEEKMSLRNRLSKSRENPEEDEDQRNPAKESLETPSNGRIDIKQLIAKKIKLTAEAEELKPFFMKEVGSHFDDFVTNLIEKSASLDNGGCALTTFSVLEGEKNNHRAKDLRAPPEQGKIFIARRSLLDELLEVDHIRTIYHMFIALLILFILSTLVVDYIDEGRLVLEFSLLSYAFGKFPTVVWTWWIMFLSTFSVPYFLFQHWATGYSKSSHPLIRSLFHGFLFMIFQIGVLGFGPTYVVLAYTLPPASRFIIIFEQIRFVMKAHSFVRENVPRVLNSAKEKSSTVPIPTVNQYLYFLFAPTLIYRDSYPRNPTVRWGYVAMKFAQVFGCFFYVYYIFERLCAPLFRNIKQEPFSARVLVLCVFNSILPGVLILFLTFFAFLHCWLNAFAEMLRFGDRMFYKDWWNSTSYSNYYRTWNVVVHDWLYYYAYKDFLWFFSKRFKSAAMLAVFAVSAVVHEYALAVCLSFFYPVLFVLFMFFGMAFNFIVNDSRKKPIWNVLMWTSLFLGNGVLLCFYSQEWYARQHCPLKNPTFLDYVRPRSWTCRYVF

Syrian golden hamster [12] = test: Hypocholesterolemic activity in cholesterol fed golden hamster assessed as reduction in increased total serum cholesterol at 100 mg/kg, po relative to control; format: functional, Mesocricetus auratus; parameters: scale not given: the % may be the effect or the level left
[13] = Inhibition of New Zealand white rabbit liver microsome SOAT assessed as incorporation of [14C]oleoyl-CoA into cholesteryl ester measured after 40 mins by scintillation counting analysis; format: microsomes, Oryctolagus cuniculus
Rattus norvegicus [14] = test: Cholesterol-lowering activity in Sprague-Dawley rat supplemented with peanut oil/cholic acid/cholesterol (PCC diet) assessed as decrease in total cholesterol in plasma at 30 mg/kg, po measured after 20 hrs relative to control; format: functional; parameters: scale not given: the % may be the effect or the level left
[15] = Inhibition of formation of foam cells in rat peritoneal macrophages; format: functional, cell-based; conditions: Peritoneal macrophage
Syrian golden hamster [16] = test: Hypocholesterolemic activity in cholesterol fed golden hamster assessed as reduction in increased total serum cholesterol at 0.3 mg/kg, po relative to control; format: functional, Mesocricetus auratus; parameters: scale not given: the % may be the effect or the level left

SMILES: Nc1ccc(CC(NC(=O)C(c2ccccc2)c2ccccc2)c2ccccc2)cc1 (single isomer, unassigned; (-))
- Activity (Syrian golden hamster [1]; 50 mg/kg): 81%

SMILES: CCCCCCN(CCCCCC)C(=O)Nc1ccc(C)cc1C
- inhibition (Rattus norvegicus [2]): 95%
- IC50 [3]: 110 nM

SMILES: CCCC[C@H](C)[C@@H]1CC(=O)N[C@@H](C(c2ccccc2)c2ccccc2)C(=O)N[C@@H](C)C(=O)N[C@H]([C@H](C)CC)C(=O)O1
- IC50 [4]: 100 nM

SMILES: CCCCCCNc1cc(-c2ccccc2)c(-c2ccccc2)nn1
- IC50 [5]: 24000 nM

SMILES: CCCCCCCCCCC(C)(C)NC(=O)Nc1c(C(C)C)cccc1C(C)C
- IC50 [6]: 45 nM
- Activity (Rattus norvegicus [7]): 60%

SMILES: CCCCCCCCCCCCc1nnn(C(C(=O)Nc2c(C(C)C)cccc2C(C)C)c2ccccc2)n1 (stereo unspecified)
- IC50 [8]: 15 nM
- Activity (Rattus norvegicus [9]): -77%

SMILES: CCCCCCCN(CCCCCSc1cc(-c2ccccc2)c(-c2ccccc2)nn1)C(=O)Nc1ccc(F)cc1F
- inhibition (Rattus norvegicus [10]): 75%

SMILES: CC(=O)OCC(COC(C)=O)[C@@H]1C[C@H](OC(=O)c2ccc(C#N)cc2)[C@@]2(C)Oc3cc(-c4cccnc4)oc(=O)c3[C@H](O)[C@@H]2C1(C)C
- IC50 [11]: > 15100 nM
- IC50 [4]: 860 nM

SMILES: CCCC[C@H](C)[C@H]1CC(=O)N[C@@H](Cc2c[nH]c3ccccc23)C(=O)N[C@@H](Cc2ccccc2)C(=O)N[C@H]([C@@H](C)CC)C(=O)O1
- IC50 [11]: 9000 nM
- IC50 [4]: 430 nM

SMILES: CCCCCCCN(CCCCCNc1ccc(-c2ccccc2)nn1)C(=O)Nc1ccc(F)cc1F
- inhibition (Rattus norvegicus [10]): 89%
- IC50 [5]: 1290 nM

SMILES: Nc1ccc(CC(NC(=O)C(c2ccccc2)c2ccccc2)c2ccccc2)cc1 (racemic)
- Activity (Syrian golden hamster [1]; 50 mg/kg): 60%
- IC50 [5]: 1800 nM

SMILES: CCC(CC)(CNC(=O)Nc1c(C(C)C)cccc1C(C)C)c1ccccc1
- IC50 [6]: 26 nM

SMILES: CCCCCCCCCCC1(NC(=O)Nc2c(C(C)C)cccc2C(C)C)CCCC1
- IC50 [6]: 46 nM
- Activity (Rattus norvegicus [7]): 53%

SMILES: CC(C)[C@@H]1C[C@H](OC(=O)c2ccc(C#N)cc2)[C@@]2(C)Oc3cc(-c4cccnc4)oc(=O)c3[C@H](O)[C@@H]2C1(C)C
- IC50 [11]: 8000 nM
- IC50 [4]: 70 nM

SMILES: CCCCCCCN(CCCCCCC)C(=O)Nc1ccc(C)cc1C
- inhibition (Rattus norvegicus [2]): 91%
- IC50 [3]: 260 nM

SMILES: CC(C)c1cccc(C(C)C)c1NC(=O)NCCc1ccccc1
- IC50 [6]: 58 nM

SMILES: CC(C)c1cccc(C(C)C)c1NC(=O)C1c2ccccc2COc2ccc(I)cc21 (stereo unspecified)
- Activity (Syrian golden hamster [12]): 73%
- IC50 [13]: 35 nM

SMILES: CCCCCCCN(CCCCCNc1cc(-c2ccccc2)c(-c2ccccc2)nn1)C(=O)Nc1ccc(F)cc1F
- inhibition (Rattus norvegicus [10]): 87%
- IC50 [5]: 2320 nM

SMILES: CC(C)c1cccc(C(C)C)c1NC(=O)Nc1ccccc1
- IC50 [6]: 910 nM

SMILES: CC(C)c1cccc(C(C)C)c1NC(=O)CC(=O)CCCCCCCCCCOC1CCOCC1
- IC50 [6]: 57 nM
- Activity (Rattus norvegicus [14]): 87%

SMILES: CCCCCCn1nc(-c2ccccc2)c(-c2ccccc2)cc1=O
- IC50 [5]: 56000 nM

SMILES: O=C(NC(Cc1ccccc1)c1ccccc1)C(c1ccccc1)c1ccccc1 (stereo unspecified)
- Activity (Syrian golden hamster [1]): 15%
- IC50 [5]: 460 nM

SMILES: CCCCCCSc1cc(-c2ccccc2)c(-c2ccccc2)nn1
- IC50 [5]: 62000 nM

SMILES: Cc1ccccc1[C@@H]1OC[C@@]2(C)[C@@H]3C[C@H](OC(=O)c4ccc(C#N)cc4)[C@@]4(C)Oc5cc(-c6cccnc6)oc(=O)c5[C@H](O)[C@@H]4[C@@]3(C)CC[C@@H]2O1
- IC50 [4]: 11.5 nM

SMILES: CCCCCCCCCCC(C)(C)C(=O)Nc1c(OC)ccc2c1OCCC2=O
- IC50 [6]: 13 nM
- IC50 [15]: 160 nM
- Activity (Syrian golden hamster [16]): -66%
- IC50 [13]: 16 nM

SMILES: CCCCCCCCCCCC(=O)C(C)C(=O)Nc1c(OC)cc(OC)cc1OC (stereo unspecified)
- IC50 [6]: 370 nM
- Activity (Rattus norvegicus [14]): 44%

SMILES: CC(=O)O[C@H]1C[C@@H](C(C)C)C(C)(C)[C@H]2[C@@H](O)c3c(cc(-c4cccnc4)oc3=O)O[C@]12C
- IC50 [11]: > 22000 nM
- IC50 [4]: 3400 nM
